Source: US9815796B2 (Merck Sharp & Dohme Corp., priority 2013, dated 2017)
Read-outs that look alike come from different tables or passages of the source.

Legend:
Rhesus PDE2A3 = Rhesus PDE2A3 (Macaca mulatta, UniProt B3VTJ2); experiment: PDE2 fluorescence polarization (IMAP FP) inhibition assay, rhesus enzyme; type: biochemical, rhesus macaque
Summary of the method: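 Rhesus PDE2A3 came from lysate of transiently transfected AD293 cells, diluted to give 20% substrate conversion. Substrate was 50 nM FAM-cAMP with 1 uM cGMP activator in Tris pH 7.2/MgCl2 buffer, run 60 min at room temperature over 10-point 3-fold dilutions in 1% DMSO. Read-out was IMAP fluorescence polarization (mP) after ≥1 h binding.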

human PDE2A1 = human PDE2A1 (Homo sapiens (Human), UniProt O00408); experiment: IMAP FP PDE selectivity panel, human PDE2A1; type: biochemical
Summary of the method: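 GST-tagged human PDE2A1 expressed in insect cells, run at room temperature for 60 min with 50 nM FAM-cAMP containing 1000 nM cGMP, pH 7.2 Tris/MgCl2 buffer. IMAP fluorescence polarization read after binding step.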

[1] = Rhesus PDE2, Lab A, read-out: Rhesus PDE2 Ki (nM) - Lab A
[2] = Rhesus PDE2, Lab B, read-out: Rhesus PDE2 Ki (nM) - Lab B
[3] = Human PDE2, Lab B, read-out: Human PDE2 Ki (nM) - Lab B
[4] = Human PDE2, Lab A, read-out: Human PDE2 Ki (nM) - Lab A

Chain of human PDE2A1 (O00408 other isoform, or with tags, fused parts or gaps): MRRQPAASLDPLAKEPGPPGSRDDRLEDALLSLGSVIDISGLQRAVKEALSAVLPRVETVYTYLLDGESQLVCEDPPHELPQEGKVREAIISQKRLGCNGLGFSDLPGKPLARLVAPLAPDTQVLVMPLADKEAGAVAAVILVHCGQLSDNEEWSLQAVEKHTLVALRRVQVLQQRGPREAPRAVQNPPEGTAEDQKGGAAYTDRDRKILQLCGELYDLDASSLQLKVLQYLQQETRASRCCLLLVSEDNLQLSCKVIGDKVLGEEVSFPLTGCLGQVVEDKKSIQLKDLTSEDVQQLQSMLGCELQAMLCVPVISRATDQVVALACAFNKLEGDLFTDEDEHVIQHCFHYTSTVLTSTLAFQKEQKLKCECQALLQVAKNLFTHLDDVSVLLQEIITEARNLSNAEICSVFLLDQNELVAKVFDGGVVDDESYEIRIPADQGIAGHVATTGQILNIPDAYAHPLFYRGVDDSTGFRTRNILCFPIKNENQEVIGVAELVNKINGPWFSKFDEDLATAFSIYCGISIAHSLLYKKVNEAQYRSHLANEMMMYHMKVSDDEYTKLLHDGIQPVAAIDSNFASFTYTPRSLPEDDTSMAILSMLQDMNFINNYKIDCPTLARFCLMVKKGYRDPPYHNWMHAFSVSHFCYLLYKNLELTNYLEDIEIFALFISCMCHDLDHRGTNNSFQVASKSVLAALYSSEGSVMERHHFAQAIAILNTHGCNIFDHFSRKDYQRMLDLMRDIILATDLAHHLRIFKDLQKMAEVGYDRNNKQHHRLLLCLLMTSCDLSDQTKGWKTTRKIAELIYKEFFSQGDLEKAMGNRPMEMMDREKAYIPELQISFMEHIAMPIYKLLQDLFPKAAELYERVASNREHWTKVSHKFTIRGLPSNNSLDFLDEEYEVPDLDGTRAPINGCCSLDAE
Chain of Rhesus PDE2A3 (B3VTJ2 1-941): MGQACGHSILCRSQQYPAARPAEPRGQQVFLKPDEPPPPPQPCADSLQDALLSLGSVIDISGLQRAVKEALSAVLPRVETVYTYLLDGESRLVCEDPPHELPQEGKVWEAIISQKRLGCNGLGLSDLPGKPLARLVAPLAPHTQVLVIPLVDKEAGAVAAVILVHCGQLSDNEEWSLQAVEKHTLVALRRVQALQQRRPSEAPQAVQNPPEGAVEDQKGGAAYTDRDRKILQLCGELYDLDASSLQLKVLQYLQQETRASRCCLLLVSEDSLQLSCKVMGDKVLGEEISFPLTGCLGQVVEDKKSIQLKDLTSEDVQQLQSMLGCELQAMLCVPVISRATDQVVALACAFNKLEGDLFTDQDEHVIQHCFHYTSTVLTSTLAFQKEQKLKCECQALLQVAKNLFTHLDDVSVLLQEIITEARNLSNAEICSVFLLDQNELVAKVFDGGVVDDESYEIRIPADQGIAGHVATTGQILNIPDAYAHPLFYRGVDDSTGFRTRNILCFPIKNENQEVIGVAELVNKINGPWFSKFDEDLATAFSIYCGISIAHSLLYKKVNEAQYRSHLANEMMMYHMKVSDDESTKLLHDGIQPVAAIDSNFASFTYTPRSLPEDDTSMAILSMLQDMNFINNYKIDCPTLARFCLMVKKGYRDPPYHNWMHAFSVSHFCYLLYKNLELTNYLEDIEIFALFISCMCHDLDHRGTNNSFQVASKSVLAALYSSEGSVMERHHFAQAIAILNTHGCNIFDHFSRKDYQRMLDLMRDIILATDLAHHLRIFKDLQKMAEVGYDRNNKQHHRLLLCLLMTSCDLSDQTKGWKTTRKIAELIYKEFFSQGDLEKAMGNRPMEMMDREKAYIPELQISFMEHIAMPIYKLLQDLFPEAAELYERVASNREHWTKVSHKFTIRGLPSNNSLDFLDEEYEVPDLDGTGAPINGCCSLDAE

SMILES | Ki (Rhesus PDE2A3; [1]) [nM] | Ki (Rhesus PDE2A3; [2]) [nM] | Ki (human PDE2A1; [3]) [nM] | Ki (human PDE2A1; [4]) [nM]
CC[C@@H](NC(=O)c1cc(=O)[nH]c(C2CC2)n1)c1ccc(SC(F)(F)F)c(F)c1 [Example 246, 2-cyclopropyl-N-[(1R)-1-{3-fluoro-4-[(trifluoromethyl)sulfanyl]phenyl}propyl]-6-oxo-1,6-dihydropyrimidine-4-carboxamide] | 3.1 | 5.4 | 5.2 | –
O=C(NC1(c2ccc(OC(F)(F)F)cc2)CCC1)c1cc(=O)[nH]c(-c2ncccn2)n1 [Example 290, 6-oxo-N-(1-(4-(trifluoromethoxy)phenyl)cyclobutyl)-1,6-dihydro-[2,2′-bipyrimidine]-4-carboxamide] | 942 | – | – | 540
C[C@@H](NC(=O)c1nc[nH]c(=O)c1C1CCC1)c1ccc(C(F)(F)F)cc1 [Example 334, (R)-5-cyclobutyl-6-oxo-N-(1-(4-(trifluoromethyl)phenyl)ethyl)-1,6-dihydropyrimidine-4-carboxamide] | 2830 | – | – | 2370
C[C@@H](NC(=O)c1cc(=O)[nH]c(-c2ccccc2)n1)c1ccc(Cl)cc1 [Example 418, N-[(1R)-1-(4-chlorophenyl)ethyl]-6-oxo-2-phenyl-1,6-dihydropyrimidine-4-carboxamide] | – | 48 | 41 | –
Cc1nc(C(=O)N[C@@H](c2ccc(C(F)(F)F)c(F)c2)C2CC2)cc(=O)[nH]1 [Example 68, N-{(R)-cyclopropyl[3-fluoro-4-(trifluoromethyl)phenyl]methyl}-2-methyl-6-oxo-1,6-dihydropyrimidine-4-carboxamide] | 26 | – | – | 17
CC[C@@H](NC(=O)c1cc(=O)[nH]c(C(C)(C)c2ccc(OC)cc2)n1)c1ccc(SC(F)(F)F)cc1 [Example 495, 2-[1-(4-methoxyphenyl)-1-methylethyl]-6-oxo-N-[(1R)-1-{4-[(trifluoromethyl)sulfanyl]phenyl}propyl]-1,6-dihydropyrimidine-4-carboxamide] | – | 54 | 45 | –
CC[C@@H](NC(=O)c1cc(=O)[nH]c(COC)n1)c1ccc(SC(F)(F)F)cc1 [Example 121, 2-(methoxymethyl)-6-oxo-N-[(1R)-1-{4-[(trifluoromethyl)sulfanyl]phenyl}propyl]-1,6-dihydropyrimidine-4-carboxamide] | 25 | 29 | – | ~6.2
C[C@@H](NC(=O)c1cc(=O)[nH]c(-c2ccccc2)n1)c1ccc(N(C)C)cc1 [Example 374, N-{(1R)-1-[4-(dimethylamino)phenyl]ethyl}-6-oxo-2-phenyl-1,6-dihydropyrimidine-4-carboxamide] | 24 | 36 | 33 | –
CC(C)(NC(=O)c1cc(=O)[nH]c(C2CC2)n1)c1ccc(SC(F)(F)F)c(F)c1 [Example 266, 2-cyclopropyl-N-(1-{3-fluoro-4-[(trifluoromethyl)sulfanyl]phenyl}-1-methylethyl)-6-oxo-1,6-dihydropyrimidine-4-carboxamide] | 86 | – | – | 65
C[C@@H](NC(=O)c1cc(=O)[nH]c(C2CC2)n1)c1ccc(CC(F)(F)F)cc1 [Example 217, 2-cyclopropyl-6-oxo-N-{(1R)-1-[4-(2,2,2-trifluoroethyl)phenyl]ethyl}-1,6-dihydropyrimidine-4-carboxamide] | 29 | – | – | 14
CSCc1nc(C(=O)N[C@H](C)c2ccc(C(F)(F)F)cc2)cc(=O)[nH]1 [Example 36, 2-[(methylsulfanyl)methyl]-6-oxo-N-{(1R)-1-[4-(trifluoromethyl)phenyl]ethyl}-1,6-dihydropyrimidine-4-carboxamide] | 163 | – | – | 116
O=C(NC(c1ccc(F)cc1)c1ccc(C(F)(F)F)cc1)c1cc(=O)[nH]c(-c2ccccc2)n1 (stereo not drawn) [Example 367, N-{(4-fluorophenyl)[4-(trifluoromethyl)phenyl]methyl}-6-oxo-2-phenyl-1,6-dihydropyrimidine-4-carboxamide] | 74 | 314 | 262 | –
CCc1ccc(C(C)NC(=O)c2cc(=O)[nH]c(C3CC3)n2)cc1 (stereo not drawn) [Example 194, 2-cyclopropyl-N-[1-(4-ethylphenyl)ethyl]-6-oxo-1,6-dihydropyrimidine-4-carboxamide] | 72 | – | – | 28
O=C(N[C@@H](c1ccc(S(F)(F)(F)(F)F)cc1)C1CC1)c1cc(=O)[nH]c(-c2ccccc2)n1 [Example 404, N-{(R)-cyclopropyl[4-(pentafluoro-λ^6-sulfanyl)phenyl]methyl}-6-oxo-2-phenyl-1,6-dihydropyrimidine-4-carboxamide] | – | 9.5 | 6.5 | –
O=C(NC1(c2ccc(OC(F)(F)F)cc2)CCC1)c1cc(=O)[nH]c(C2CC2)n1 [Example 300, 2-cyclopropyl-6-oxo-N-{1-[4-(trifluoromethoxy)phenyl]cyclobutyl}-1,6-dihydropyrimidine-4-carboxamide] | 88 | – | – | 55
CC(NC(=O)c1cc(=O)[nH]c(-c2ccccc2)n1)c1ccc(C(F)(F)F)cn1 (stereo not drawn) [Example 149, 6-oxo-2-phenyl-N-{1-[5-(trifluoromethyl)pyridin-2-yl]ethyl}-1,6-dihydropyrimidine-4-carboxamide] | 204 | – | – | 117
Cc1nc(C(=O)N[C@@H](c2ccc(C3CC3)c(F)c2)C2CC2)cc(=O)[nH]1 [Example 426, N-[(R)-cyclopropyl(4-cyclopropyl-3-fluorophenyl)methyl]-2-methyl-6-oxo-1,6-dihydropyrimidine-4-carboxamide] | – | 9.1 | 9.5 | –
Cc1nc(C(=O)N[C@H](C)c2ccc(C(F)(F)F)c(Cl)c2)cc(=O)[nH]1 [Example 47, N-{(1R)-1-[3-chloro-4-(trifluoromethyl)phenyl]ethyl}-2-methyl-6-oxo-1,6-dihydropyrimidine-4-carboxamide] | 41 | – | – | 32
COc1cc(OC(F)(F)F)ccc1C(C)NC(=O)c1cc(=O)[nH]c(-c2ccccc2)n1 (stereo not drawn) [Example 387, N-{1-[2-methoxy-4-(trifluoromethoxy)phenyl]ethyl}-6-oxo-2-phenyl-1,6-dihydropyrimidine-4-carboxamide] | – | 9.6 | 8.1 | –
CC(C)(C)[C@@H](NC(=O)c1cc(=O)[nH]c(C2CC2)n1)c1ccc(SC(F)(F)F)cc1 [Example 439, 2-cyclopropyl-N-[(1R)-2,2-dimethyl-1-{4-[(trifluoromethyl)sulfanyl]phenyl}pro-pyl]-6-oxo-1,6-dihydropyrimidine-4-carboxamide] | – | 1 | 1.3 | –
CC(NC(=O)c1cc(=O)[nH]c(C2CC2)n1)c1ccc(C2CC2)cc1 (stereo not drawn) [Example 195, 2-cyclopropyl-N-[1-(4-cyclopropylphenyl)ethyl]-6-oxo-1,6-dihydropyrimidine-4-carboxamide] | 33 | – | – | 18
Cc1nc(C(=O)NC2(c3ccc(C(F)(F)F)c(F)c3)CC2)cc(=O)[nH]1 [Example 44, N-{1-[3-fluoro-4-(trifluoromethyl)phenyl]cyclopropyl}-2-methyl-6-oxo-1,6-dihydropyrimidine-4-carboxamide] | 17 | 16 | 16 | 10
CC(C)(C)[C@@H](NC(=O)c1cc(=O)[nH]c(C2CC2)n1)c1ccc(C2CC2)c(F)c1 [Example 435, 2-cyclopropyl-N-[(1R)-1-(4-cyclopropyl-3-fluorophenyl)-2,2-dimethylpropyl]-6-oxo-1,6-dihydropyrimidine-4-carboxamide] | – | 1.1 | 0.78 | –
C[C@@H](NC(=O)c1cc(=O)[nH]c(-c2ncccn2)n1)c1cc(F)c(C(F)(F)F)c(F)c1 [Example 108, N-{(1R)-1-[3,5-difluoro-4-(trifluoromethyl)phenyl]ethyl}-6-oxo-1,6-dihydro-2,2′-bipyrimidine-4-carboxamide] | 25 | 33 | 39 | ~9.2
CC[C@@H](NC(=O)c1cc(=O)[nH]c(Cc2ccc(OC)c(F)c2)n1)c1ccc(SC(F)(F)F)cc1 [Example 518, 2-(3-fluoro-4-methoxybenzyl)-6-oxo-N-[(1R)-1-{4-[(trifluoromethyl)sulfanyl]phenyl}propyl]-1,6-dihydropyrimidine-4-carboxamide] | – | 1.8 | 1.7 | –
C[C@@H](NC(=O)c1cc(=O)[nH]c(-c2ncccn2)n1)c1ccc(-c2ccccc2)cc1 [Example 287, N-[(1R)-1-biphenyl-4-ylethyl]-6-oxo-1,6-dihydro-2,2′-bipyrimidine-4-carboxamide] | 45 | – | – | 28
Cc1cc(C(F)(F)F)ccc1C(C)NC(=O)c1cc(=O)[nH]c(-c2ccccc2)n1 (stereo not drawn) [Example 173, N-{1-[2-methyl-4-(trifluoromethyl)phenyl]ethyl}-6-oxo-2-phenyl-1,6-dihydropyrimidine-4-carboxamide] | 90 | – | – | 76
COc1ccc(Cc2nc(C(=O)N[C@@H](c3ccc(C(F)(F)F)c(F)c3)C(C)C)cc(=O)[nH]2)cc1 [Example 472, N-{(1R)-1-[3-fluoro-4-(trifluoromethyl)phenyl]-2-methylpropyl}-2-(4-methoxybenzyl)-6-oxo-1,6-dihydropyrimidine-4-carboxamide] | – | 1.6 | 1.7 | –
CCc1ccc(C(C)NC(=O)c2cc(=O)[nH]c(-c3ncccn3)n2)cc1 (stereo not drawn) [Example 79, N-[1-(4-ethylphenyl)ethyl]-6-oxo-1,6-dihydro-2,2′-bipyrimidine-4-carboxamide] | 22 | 25 | 35 | –
COc1cc(C(C)NC(=O)c2cc(=O)[nH]c(-c3ccccc3)n2)ccc1C(F)(F)F (stereo not drawn) [Example 155] | 119 | – | – | 143
